Several values for one entry are separate records, joined by “and”; a condition that tells them apart may be missing. Equal entries are not always repeated.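 Cells were grown in 96-well plates and exposed to each compound for 48 hours at five concentrations; endpoints were interpolated linearly between bracketing concentrations, or set to the highest concentration if not reached. GI50 = concentration required for 50% inhibition of growth. TGI denotes the concentration required for complete inhibition of growth.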
Tests used:
Experiment in all cases: growth of human tumour cells (NCI), 48 h
M14 melanoma = system: M14 melanoma
HOP-62 NSCLC = system: HOP-62 NSCLC
SK-OV-3 ovarian = system: SK-OV-3 ovarian
HL-60(TB) leukemia = system: HL-60(TB) leukemia
OVCAR-4 ovarian = system: OVCAR-4 ovarian
MCF7 breast = system: MCF7 breast
HCT-15 colon = system: HCT-15 colon
RPMI-8226 leukemia = system: RPMI-8226 leukemia
BT-549 breast = system: BT-549 breast
SF-295 CNS = system: SF-295 CNS
MOLT-4 leukemia = system: MOLT-4 leukemia
U251 CNS = system: U251 CNS

Compound | TGI (M14 melanoma) | TGI (HOP-62 NSCLC) | TGI (SK-OV-3 ovarian) | TGI (HL-60(TB) leukemia) | TGI (OVCAR-4 ovarian) | TGI (MCF7 breast) | TGI (HCT-15 colon) | TGI (RPMI-8226 leukemia) | TGI (BT-549 breast) | TGI (SF-295 CNS) | TGI (MOLT-4 leukemia) | TGI (U251 CNS) | GI50 (HOP-62 NSCLC) | GI50 (SK-OV-3 ovarian) | GI50 (OVCAR-4 ovarian) | GI50 (RPMI-8226 leukemia) | GI50 (SF-295 CNS)
Nc1nc(Cl)c(C=O)c(NCC2(CO)CCC2)n1 | > 100 µM | 65.1 µM | 69.5 µM | 22.3 µM | 32.9 µM | > 100 µM | 25.3 µM | > 100 µM | > 100 µM | 67.6 µM | 65.5 µM | 31.9 µM | – | – | – | – | –
C[C@H]1[C@H](C)CC[C@]2(C(=O)OC3OC(CO)C(O)C(O)C3O)CC[C@]3(C)C(=CC[C@@H]4[C@@]5(C)C[C@@H](O)[C@@H]6OC(=O)c7cc(O)c(O)c(O)c7-c7c(cc(O)c(O)c7O)C(=O)OC[C@]6(CO)[C@@H]5CC[C@]43C)[C@H]12 (stereo partly drawn) | > 100 µM | > 71.1 µM | > 100 µM | 87.8 µM | 40.1 µM | 21.8 µM | > 100 µM | > 100 µM | > 100 µM | > 91 µM | 66.9 µM | 34.7 µM | – | – | – | – | –
Cc1cc(=O)n2nc(CSc3n[nH]c(=S)s3)sc2n1 | > 100 µM | > 100 µM | > 100 µM | > 100 µM | > 100 µM | > 100 µM | > 100 µM | > 100 µM | > 100 µM | > 100 µM | > 100 µM | > 100 µM | – | – | – | – | –
O=C1NC(N2CCCCC2)=N/C1=C\c1ccccc1 | > 100 µM | > 100 µM | > 100 µM | > 100 µM | > 100 µM | > 100 µM | > 100 µM | > 100 µM | > 100 µM | > 100 µM | > 100 µM | > 100 µM | – | – | – | – | –
CC1(C)CN=C(Nc2ccc(F)c(Cl)c2)S1 | > 100 µM | > 100 µM | > 100 µM | > 100 µM | > 100 µM | > 100 µM | > 100 µM | > 100 µM | > 100 µM | > 100 µM | > 100 µM | > 100 µM | – | – | – | – | –
COC(=O)/C=C/c1cnc2c(c1)oc(=O)n2C | > 100 µM | > 100 µM | > 100 µM | > 100 µM | > 100 µM | > 100 µM | > 100 µM | > 100 µM | > 100 µM | > 100 µM | > 100 µM | > 100 µM | – | – | – | – | –
FC(F)(F)C1(c2ccccc2)SCc2nc3ccccc3n21 (stereo not drawn) | > 100 µM | > 100 µM | > 100 µM | > 100 µM | > 100 µM | > 100 µM | > 100 µM | > 100 µM | > 100 µM | > 100 µM | > 100 µM | > 100 µM | – | – | – | – | –
COC(=O)C1(Cc2ccc(C)cc2)Cc2c(C)cccc2C1=O (stereo not drawn) | > 100 µM | 65.5 µM | > 100 µM | 25 µM | 98.9 µM | 28.4 µM | 75.9 µM | 40.6 µM | 69.7 µM | > 100 µM | > 100 µM | 66.5 µM | – | – | – | – | –
COc1ccc2c(c1)OC1c3ccccc3OCC21 (stereo not drawn) | > 100 µM | > 100 µM | > 100 µM | > 100 µM | > 100 µM | > 100 µM | > 100 µM | > 100 µM | > 100 µM | > 100 µM | 81.9 µM | > 100 µM | – | – | – | – | –
NS(=O)(=O)c1nnc(NC(=O)/C=C/C(=O)O)s1 | > 100 µM | > 100 µM | > 100 µM | > 100 µM | > 100 µM | > 100 µM | > 100 µM | > 100 µM | > 100 µM | > 100 µM | > 100 µM | > 100 µM | – | – | – | – | –
COc1ccc2[nH]c3c(C)c4ncccc4c(C)c3c2c1 | 3.24 µM | > 10 µM | > 10 µM | 5.85 µM | > 10 µM | 4.81 µM | > 10 µM | 7.56 µM | > 10 µM | 9.26 µM | > 10 µM | > 10 µM | – | – | – | – | –
C(/C=C/Nc1ccc(-c2ccccc2)cc1)=Nc1ccc(-c2ccccc2)cc1 | > 100 µM | > 100 µM | > 100 µM | > 100 µM | > 100 µM | > 100 µM | > 100 µM | > 100 µM | > 100 µM | > 100 µM | > 100 µM | > 100 µM | – | – | – | – | –
COc1ccc(-c2nc(SC)n(C3OC(COC(C)=O)C(OC(C)=O)C(OC(C)=O)C3OC(C)=O)c(=O)c2C#N)cc1 (stereo not drawn) | > 100 µM | 52.7 µM and > 100 µM | 98.4 µM and > 100 µM | > 100 µM | > 100 µM | > 100 µM | > 100 µM | > 100 µM | > 100 µM | 65.6 µM and > 100 µM | > 100 µM | > 100 µM | 24.4 µM and > 100 µM | 34.5 µM and > 100 µM | 29.3 µM and > 100 µM | 47.4 µM and > 100 µM | 24.2 µM and > 100 µM
COc1ccc2c(c1)C(=O)[C@@](Nc1ccc(C=O)cc1)(OC)[C@@](OC)(c1ccc([N+](=O)[O-])cc1)O2 | > 10 µM | > 10 µM | > 10 µM | > 10 µM | > 10 µM | > 10 µM | > 10 µM | > 10 µM | > 10 µM | > 10 µM | > 10 µM | > 10 µM | – | – | – | – | –

— PubChem BioAssay (NCI)
